# Experimental data published in patent US20180318347A1, “METHODS FOR TREATING CANCER” (Agenus Inc., priority 2015, published 2018).
# “Also recorded” adds a separate entry of the source. Where two headings read alike, the source gives them in different places.
# What was measured:
# [1] = cited from earlier work
# GBM patients = assay: Adverse events (CTCAE version 4.0) in the same clinical study; format: in vivo, human; conditions: 46 patients
# Experimental: Baseline evaluation including neurologic assessment, complete blood analysis, and tumor imaging with contrast-enhanced MRI was performed pre-operatively and immediately postoperatively, usually within 48 hours. KPS was graded by the treating provider. Repeat assessment by physical examination and imaging was performed at the completion of initial chemoradiotherapy, just prior to the first vaccine administration. Final eligibility to receive vaccine was determined at this time point. After initiation of vaccine therapy, patients were evaluated every 4 weeks by clinical examination, and every 8 weeks by radiographic imaging with contrast-enhanced MRI. Tumor progression was assessed according to the modified RANO criteria (Table 1). Adverse events were assessed and graded according to the National Cancer Institute Common Terminology Criteria for Adverse Event (CTCAE), version 4.0.
# GBM [2] = assay: Published GBM trials used for comparison (Tables 13 and 14, discussion); format: in vivo, human; conditions: Rad/TMZ plus Avastin arm
# GBM [3] = conditions: cited from earlier work; for Median PFS / Median Survival: Rad/TMZ plus Avastin arm
# [4] = AVAglio, Chinot et al, NEJM 2014
# [5] = RTOG 0825 Gilbert, et al. NEJM 2014
# [6] = RTOG 0825 Trial, Gilbert, NEJM 2013, N = 637
Molecule,concentrations in the central nervous system relative to plasma concentrations ([1]; following oral administration),blood-brain barrier penetration ([1]; in vivo),bioavailability ([1]; taken orally),Any Adverse Event: TWZ-related event (GBM patients),Grade 3-4 Event: TWZ-related event (GBM patients),Estimated Post-Progression Survival (GBM [2]; [4]),Estimated Post-Progression Survival (GBM [2]; [5]),Median PFS (GBM [3]; [4]),Median Survival (GBM [3]; [4]),Median PFS (GBM [3]; [5]),Median Survival (GBM [3]; [5]),"Median Survival, Methylated (GBM [3]; [6])","Median Survival, Unmethylated (GBM [3]; [6])","Median overall survival, methylated patients (GBM [3]; bevacizumab trials)","Median overall survival, unmethylated patients (GBM [3]; bevacizumab trials)","Benefit of adding bevacizumab to radiation and temozolomide (GBM [3]; newly diagnosed GBM, randomized phase 3 trials vs placebo)"
Cn1nnc2c(C(N)=O)ncn2c1=O [temozolomide],approximately 30%,able to cross the blood-brain barrier,greater than 95%,42 (91.3%) no. of patients (%),21 (45.6%) no. of patients (%),–,–,–,–,–,–,–,–,–,–,–
bevacizumab [Avastin],–,–,–,–,–,6.2 months,5.4 months,10.6 months,16.8 months,10.7 months,16.1 months,23.2 months,14.3 months,25.0 months,14.6 months,no significant benefit; also recorded: no improvement in overall survival compared to placebo
